Measurements from ChEMBL document CHEMBL3774317, “Design and synthesis of novel tamoxifen analogues that avoid CYP2D6 metabolism” (Eur J Med Chem, 2016).

Tests used:
Assay type in all cases: functional
[1] = Cytotoxicity against human OVCAR3 cells assessed as cell growth at 10^-7 M after 48 hrs by SRB assay; details: OVCAR-3, 48 h, read-out: Activity
[2] = test system: SN12C; assay: Cytotoxicity against human SN12C cells assessed as cell growth at 10^-7 M after 48 hrs by SRB assay; details: read-out: Activity
[3] = test system: A549; assay: Cytotoxicity against human A549 cells assessed as cell growth at 10^-6 M after 48 hrs by SRB assay; details: A549, 48 h, read-out: Activity
[4] = Cytotoxicity against human HCT15 cells assessed as cell growth at 10^-6 M after 48 hrs by SRB assay; details: HCT-15, 48 h, read-out: Activity
[5] = test system: KM12; assay: Cytotoxicity against human KM12 cells assessed as cell growth at 10^-6 M after 48 hrs by SRB assay; details: KM12, 48 h, read-out: Activity
[6] = test system: 786-0; assay: Cytotoxicity against human 786-0 cells assessed as cell growth at 10^-4 M after 48 hrs by SRB assay; details: 786-0, 48 h, read-out: Activity
[7] = Cytotoxicity against human Hs 578T cells assessed as cell growth at 10^-4 M after 48 hrs by SRB assay; details: read-out: Activity
[8] = test system: U-251; assay: Cytotoxicity against human U251 cells assessed as cell growth at 10^-6 M after 48 hrs by SRB assay; details: U-251, 48 h, read-out: Activity
[9] = Cytotoxicity against human TK10 cells assessed as cell growth at 10^-6 M after 48 hrs by SRB assay; details: TK-10, 48 h, read-out: Activity
[10] = Cytotoxicity against human UO31 cells assessed as cell growth at 10^-6 M after 48 hrs by SRB assay; details: UO-31, 48 h, read-out: Activity
[11] = test system: EKVX; assay: Cytotoxicity against human EKVX cells assessed as cell growth at 10^-5 M after 48 hrs by SRB assay; details: read-out: Activity
[12] = Cytotoxicity against human HCT15 cells assessed as cell growth at 10^-5 M after 48 hrs by SRB assay; details: HCT-15, 48 h, read-out: Activity
[13] = test system: M14; assay: Cytotoxicity against human M14 cells assessed as cell growth at 10^-5 M after 48 hrs by SRB assay; details: M14, 48 h, read-out: Activity
[14] = test system: K562; assay: Cytotoxicity against human K562 cells assessed as cell growth at 10^-7 M after 48 hrs by SRB assay; details: K562, 48 h, read-out: Activity
[15] = test system: SR; assay: Cytotoxicity against human SR cells assessed as cell growth at 10^-7 M after 48 hrs by SRB assay; details: read-out: Activity
[16] = test system: ACHN; assay: Cytotoxicity against human ACHN cells assessed as cell growth at 10^-5 M after 48 hrs by SRB assay; details: read-out: Activity
[17] = test system: MDA-MB-468; assay: Cytotoxicity against human MDA-MB-468 cells assessed as cell growth at 10^-5 M after 48 hrs by SRB assay; details: MDA-MB-468, 48 h, read-out: Activity
[18] = test system: SR; assay: Cytotoxicity against human SR cells assessed as cell growth at 10^-4 M after 48 hrs by SRB assay; details: read-out: Activity
[19] = test system: NCI-H322M; assay: Cytotoxicity against human NCI-H322M cells assessed as cell growth at 10^-4 M after 48 hrs by SRB assay; details: read-out: Activity
[20] = Cytotoxicity against human OVCAR4 cells assessed as cell growth at 10^-4 M after 48 hrs by SRB assay; details: OVCAR-4, 48 h, read-out: Activity
[21] = Cytotoxicity against human OVCAR5 cells assessed as cell growth at 10^-4 M after 48 hrs by SRB assay; details: OVCAR-5, 48 h, read-out: Activity
[22] = test system: NCI-H522; assay: Cytotoxicity against human NCI-H522 cells assessed as cell growth at 50 nM after 48 hrs by SRB assay; details: NCI-H522, 48 h, read-out: Activity
[23] = Cytotoxicity against human SNB75 cells assessed as cell growth at 50 nM after 48 hrs by SRB assay; details: SNB-75, 48 h, read-out: Activity
[24] = test system: U-251; assay: Cytotoxicity against human U251 cells assessed as cell growth at 50 nM after 48 hrs by SRB assay; details: U-251, 48 h, read-out: Activity
[25] = test system: SK-MEL-28; assay: Cytotoxicity against human SK-MEL-28 cells assessed as cell growth at 50 nM after 48 hrs by SRB assay; details: SK-MEL-28, 48 h, read-out: Activity
[26] = test system: 786-0; assay: Cytotoxicity against human 786-0 cells assessed as cell growth at 50 nM after 48 hrs by SRB assay; details: 786-0, 48 h, read-out: Activity
[27] = test system: SR; assay: Cytotoxicity against human SR cells assessed as cell growth at 0.5 uM after 48 hrs by SRB assay; details: read-out: Activity
[28] = test system: U-251; assay: Cytotoxicity against human U251 cells assessed as cell growth at 50 uM after 48 hrs by SRB assay; details: U-251, 48 h, read-out: Activity
[29] = test system: SK-MEL-2; assay: Cytotoxicity against human SK-MEL-2 cells assessed as cell growth at 50 uM after 48 hrs by SRB assay; details: SK-MEL-2, 48 h, read-out: Activity
[30] = Cytotoxicity against human IGROV1 cells assessed as cell growth at 0.5 uM after 48 hrs by SRB assay; details: IGROV-1, 48 h, read-out: Activity
[31] = test system: MDA-MB-231; assay: Cytotoxicity against human MDA-MB-231 cells assessed as cell growth at 0.5 uM after 48 hrs by SRB assay; details: MDA-MB-231, 48 h, read-out: Activity
[32] = test system: NCI-H23; assay: Cytotoxicity against human NCI-H23 cells assessed as cell growth at 5 uM after 48 hrs by SRB assay; details: NCI-H23, 48 h, read-out: Activity
[33] = test system: NCI-H460; assay: Cytotoxicity against human NCI-H460 cells assessed as cell growth at 5 uM after 48 hrs by SRB assay; details: NCI-H460, 48 h, read-out: Activity
[34] = test system: NCI-H522; assay: Cytotoxicity against human NCI-H522 cells assessed as cell growth at 5 uM after 48 hrs by SRB assay; details: NCI-H522, 48 h, read-out: Activity
[35] = Cytotoxicity against human TK10 cells assessed as cell growth at 5 nM after 48 hrs by SRB assay; details: TK-10, 48 h, read-out: Activity
[36] = Cytotoxicity against human UO31 cells assessed as cell growth at 5 nM after 48 hrs by SRB assay; details: UO-31, 48 h, read-out: Activity
[37] = test system: T47D; assay: Cytotoxicity against human T47D cells assessed as cell growth at 5 nM after 48 hrs by SRB assay; details: read-out: Activity
[38] = Cytotoxicity against human HCC2998 cells assessed as cell growth at 5 uM after 48 hrs by SRB assay; details: HCC 2998, 48 h, read-out: Activity
[39] = Cytotoxicity against human SF268 cells assessed as cell growth at 5 uM after 48 hrs by SRB assay; details: SF-268, 48 h, read-out: Activity
[40] = Cytotoxicity against human BT549 cells assessed as cell growth at 5 uM after 48 hrs by SRB assay; details: BT-549, 48 h, read-out: Activity
[41] = test system: MDA-MB-468; assay: Cytotoxicity against human MDA-MB-468 cells assessed as cell growth at 5 uM after 48 hrs by SRB assay; details: MDA-MB-468, 48 h, read-out: Activity
[42] = test system: NCI-H226; assay: Cytotoxicity against human NCI-H226 cells assessed as cell growth at 50 uM after 48 hrs by SRB assay; details: NCI-H226, 48 h, read-out: Activity

With C/C(=C(/c1ccc(O)cc1)c1ccc(OCCN2CCCC2)cc1)c1ccccc1 the growth at 0.1 µM [1] was 99%, the growth at 0.1 µM [2] was 104% and the growth at 1 µM [3] was 106%. It also gave a growth at 1 µM [4] of 81%, a growth at 1 µM [5] of 95% and a growth at 100 µM [6] of -85%. For the same molecule, the growth at 100 µM [7] was -43%, the growth at 1 µM [8] was 95% and the growth at 1 µM [9] was 95%. It also gave a growth at 1 µM [10] of 78%, a growth at 10 µM [11] of 6% and a growth at 10 µM [12] of -41%. It also gave a growth at 10 µM [13] of -58%, a growth at 0.1 µM [14] of 96% and a growth at 0.1 µM [15] of 90%. For the same molecule, the growth at 10 µM [16] was 25%, the growth at 10 µM [17] was -45% and the growth at 100 µM [18] was -66%. The growth at 100 µM [19] was -91%, the growth at 100 µM [20] was -96% and the growth at 100 µM [21] was -85%.
CCCCCCCCCC(=O)Oc1ccc(/C(=C(/C)c2ccccc2)c2ccc(OCCN3CCCC3)cc2)cc1 gave a growth at 0.05 µM [22] of 98%, a growth at 0.05 µM [23] of 83% and a growth at 0.05 µM [24] of 95%. It also gave a growth at 0.05 µM [25] of 100%, a growth at 0.05 µM [26] of 94% and a growth at 0.5 µM [27] of 60%. It also gave a growth at 50 µM [28] of -89%, a growth at 50 µM [29] of -79% and a growth at 0.5 µM [30] of 72%. For the same molecule, the growth at 0.5 µM [31] was 96%, the growth at 5 µM [32] was 80% and the growth at 5 µM [33] was 92%. The growth at 5 µM [34] was 96%, the growth at 0.005 µM [35] was 96% and the growth at 0.005 µM [36] was 95%. It also gave a growth at 0.005 µM [37] of 69%, a growth at 5 µM [38] of 90% and a growth at 5 µM [39] of 83%. It also gave a growth at 5 µM [40] of 85%, a growth at 5 µM [41] of 76% and a growth at 50 µM [42] of -74%.
